According to PubChem BioAssay AID248 (DTP/NCI, 2004):
“And” between values parts separate entries of the source, which are not always exact repeats. Equal values may be shown once. Toxic doses and inconclusive results are not listed.

Test system: L1210 leukemia ip in BDF1 mice, survival T/C
Assay: NCI In Vivo Anticancer Drug Screen. Data for tumor model L1210 Leukemia (intraperitoneal) in B6D2F1 (BDF1) mice
Details: endpoint: mean survival time, higher = longer survival
In short: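 Each compound was tested against a transplantable tumor grown in mice. The endpoint was survival, with treated animals benchmarked against vehicle controls as a simple ratio.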

[1] = dose: 50.0 mg/kg/injection, schedule: Q04DX002 (ip), vehicle: saline with Tween-80
[2] = dose: 100.0 mg/kg/injection, schedule: Q04DX002 (ip), vehicle: saline with Tween-80
[3] = dose: 200.0 mg/kg/injection, schedule: Q04DX002 (ip), vehicle: saline with Tween-80
[4] = dose: 75.0 mg/kg/injection, schedule: Q01DX001 (ip), vehicle: saline
[5] = dose: 150.0 mg/kg/injection, schedule: Q01DX001 (ip), vehicle: saline
[6] = dose: 300.0 mg/kg/injection, schedule: Q01DX001 (ip), vehicle: saline
[7] = dose: 100.0 mg/kg/injection, schedule: Q04DX003 (ip), vehicle: Klucel (hydroxypropylcellulose) (HPC)
[8] = dose: 200.0 mg/kg/injection, schedule: Q04DX003 (ip), vehicle: Klucel (hydroxypropylcellulose) (HPC)
[9] = dose: 100.0 mg/kg/injection, schedule: Q01DX001 (ip), vehicle: Klucel (hydroxypropylcellulose) (HPC)
[10] = dose: 200.0 mg/kg/injection, schedule: Q01DX001 (ip), vehicle: Klucel (hydroxypropylcellulose) (HPC)
[11] = dose: 400.0 mg/kg/injection, schedule: Q01DX001 (ip), vehicle: Klucel (hydroxypropylcellulose) (HPC)
[12] = dose: 400.0 mg/kg/injection, schedule: Q04DX003 (ip), vehicle: Klucel (hydroxypropylcellulose) (HPC)
[13] = dose: 100.0 mg/kg/injection, schedule: Q01DX009 (ip), vehicle: Klucel (hydroxypropylcellulose) (HPC)
[14] = dose: 200.0 mg/kg/injection, schedule: Q01DX009 (ip), vehicle: Klucel (hydroxypropylcellulose) (HPC)
[15] = dose: 400.0 mg/kg/injection, schedule: Q01DX009 (ip), vehicle: Klucel (hydroxypropylcellulose) (HPC)
[16] = dose: 100.0 mg/kg/injection, schedule: Q01DX001 (ip), vehicle: saline
[17] = dose: 200.0 mg/kg/injection, schedule: Q01DX001 (ip), vehicle: saline
[18] = dose: 400.0 mg/kg/injection, schedule: Q01DX001 (ip), vehicle: saline
[19] = dose: 12.5 mg/kg/injection, schedule: Q01DX009 (ip), vehicle: saline with Tween-80
[20] = dose: 25.0 mg/kg/injection, schedule: Q01DX009 (ip), vehicle: saline with Tween-80
[21] = dose: 400.0 mg/kg/injection, schedule: Q04DX002 (ip), vehicle: saline with Tween-80

CC(=O)NCC(O)C(O)C(O)C(/C=N/Nc1ccccc1)=N/Nc1ccccc1 (centres undefined)
T/C [1]: 88 % of control | T/C [2]: 92 % of control | T/C [3]: 98 % of control

Cc1cc([N+](=O)[O-])c(P(=O)(O)O)cc1Cl
T/C [4]: 93 % of control | T/C [5]: 91 % of control | T/C [6]: 96 % of control

CCOc1ccc(/C=C/[N+](=O)[O-])cc1
T/C (dose: 12.5 mg/kg/injection, schedule: Q01DX009 (ip), vehicle: Klucel (hydroxypropylcellulose) (HPC)): 96 % of control | T/C (dose: 12.5 mg/kg/injection, schedule: Q04DX003 (ip), vehicle: Klucel (hydroxypropylcellulose) (HPC)): 95 % of control | T/C (dose: 25.0 mg/kg/injection, schedule: Q01DX009 (ip), vehicle: Klucel (hydroxypropylcellulose) (HPC)): 97 % of control | T/C (dose: 25.0 mg/kg/injection, schedule: Q04DX003 (ip), vehicle: Klucel (hydroxypropylcellulose) (HPC)): 114 % of control | T/C (dose: 50.0 mg/kg/injection, schedule: Q01DX009 (ip), vehicle: Klucel (hydroxypropylcellulose) (HPC)): 105 % of control | T/C (dose: 50.0 mg/kg/injection, schedule: Q04DX003 (ip), vehicle: Klucel (hydroxypropylcellulose) (HPC)): 101 % of control | T/C [7]: 94 % of control | T/C [8]: 95 % of control

Nc1nccc2n[nH]nc12
T/C [9]: 100 % of control | T/C [7]: 103 % of control | T/C [10]: 92 % of control | T/C [8]: 101 % of control | T/C [11]: 97 % of control | T/C [12]: 101 % of control

CC/C(=N\[N+](C)(C)C)c1ccccc1
T/C (dose: 18.8 mg/kg/injection, schedule: Q04DX003 (ip), vehicle: saline): 100 % of control | T/C (dose: 37.5 mg/kg/injection, schedule: Q04DX003 (ip), vehicle: saline): 97 % of control | T/C [4]: 100 % of control | T/C (dose: 75.0 mg/kg/injection, schedule: Q04DX003 (ip), vehicle: saline): 100 % of control

O=C(c1ccc(Cl)cc1)c1nonc1C(=O)c1ccc(Cl)cc1
T/C [9]: 100 % of control | T/C [13]: 98 % of control | T/C [10]: 96 % of control | T/C [14]: 95 % of control | T/C [11]: 100 % of control | T/C [15]: 106 % of control

CC1Cc2c(n[nH]c2CC2CC(=O)NC(=O)C2)C(C)C1 (centres undefined)
T/C (dose: 100.0 mg/kg/injection, schedule: Q01DX001 (ip), vehicle: carboxymethylcellulose (CMC)): 100 % of control | T/C (dose: 200.0 mg/kg/injection, schedule: Q01DX001 (ip), vehicle: carboxymethylcellulose (CMC)): 97 % of control | T/C (dose: 400.0 mg/kg/injection, schedule: Q01DX001 (ip), vehicle: carboxymethylcellulose (CMC)): 101 % of control

O=S(=O)(O)c1ccc(Cl)c(Cl)c1
T/C (dose: 100.0 mg/kg/injection, schedule: Q04DX002 (ip), vehicle: saline): 107 % of control | T/C (dose: 200.0 mg/kg/injection, schedule: Q04DX002 (ip), vehicle: saline): 100 % of control | T/C (dose: 400.0 mg/kg/injection, schedule: Q04DX002 (ip), vehicle: saline): 107 % of control

COc1ccc(C(=O)/C(C)=N/O)cc1
T/C [16]: 103 % of control | T/C [17]: 103 % of control | T/C [18]: 101 % of control

CC(NP1(=O)OCC(C)(N)CO1)c1ccccc1 (centres undefined)
T/C (dose: 50.0 mg/kg/injection, schedule: Q01DX001 (ip), vehicle: saline): 108 % of control | T/C [16]: 102 % of control | T/C [17]: 106 % of control | T/C [18]: 93 % of control

COc1ccc(OC)c(NC(=O)NNC(=O)CNC(=O)Nc2ccc(Cl)c(Cl)c2)c1
T/C [19]: 95 % of control | T/C [20]: 95 % of control | T/C (dose: 50.0 mg/kg/injection, schedule: Q01DX009 (ip), vehicle: saline with Tween-80): 91 % of control and 92 % of control | T/C (dose: 100.0 mg/kg/injection, schedule: Q01DX009 (ip), vehicle: saline with Tween-80): 88 % of control | T/C (dose: 200.0 mg/kg/injection, schedule: Q01DX009 (ip), vehicle: saline with Tween-80): 98 % of control

CCOC(=O)c1cnc(SC)nc1Nc1cccc(C(F)(F)F)c1
T/C (dose: 50.0 mg/kg/injection, schedule: Q01DX001 (ip), vehicle: gum acacia): 96 % of control | T/C (dose: 87.0 mg/kg/injection, schedule: Q01DX009 (ip), vehicle: gum acacia): 100 % of control | T/C (dose: 100.0 mg/kg/injection, schedule: Q01DX001 (ip), vehicle: gum acacia): 89 % of control and 90 % of control | T/C (dose: 175.0 mg/kg/injection, schedule: Q01DX009 (ip), vehicle: gum acacia): 99 % of control | T/C (dose: 200.0 mg/kg/injection, schedule: Q01DX001 (ip), vehicle: gum acacia): 89 % of control | T/C (dose: 350.0 mg/kg/injection, schedule: Q01DX009 (ip), vehicle: gum acacia): 94 % of control | T/C (dose: 400.0 mg/kg/injection, schedule: Q01DX001 (ip), vehicle: gum acacia): 99 % of control

COc1ccc(C(=O)Nc2ccccc2)cc1NC(=S)Nc1ccccc1
T/C (dose: 100.0 mg/kg/injection, schedule: Q04DX002 (ip), vehicle: Klucel (hydroxypropylcellulose) (HPC)): 95 % of control | T/C (dose: 200.0 mg/kg/injection, schedule: Q04DX002 (ip), vehicle: Klucel (hydroxypropylcellulose) (HPC)): 98 % of control

O=C1CCCCC(=O)CCCC1
T/C [16]: 102 % of control | T/C [17]: 100 % of control | T/C [18]: 105 % of control

CCOc1n[n+]([O-])c(Cl)c(C)c1[N+](=O)[O-]
T/C (dose: 25.0 mg/kg/injection, schedule: Q04DX002 (ip), vehicle: saline with Tween-80): 96 % of control | T/C [1]: 92 % of control | T/C [2]: 96 % of control

COc1cc(O)c(/C=N\N=C\c2ccco2)c(OC)c1
T/C [4]: 90 % of control | T/C [5]: 90 % of control | T/C [6]: 86 % of control

c1ccc(N(c2ccccc2)[Si](c2ccccc2)(c2ccccc2)c2ccccc2)cc1
T/C (dose: 25.6 mg/kg/injection, schedule: Q04DX002 (ip), vehicle: saline with Tween-80): 93 % of control | T/C (dose: 64.0 mg/kg/injection, schedule: Q04DX002 (ip), vehicle: saline with Tween-80): 93 % of control | T/C (dose: 160.0 mg/kg/injection, schedule: Q04DX002 (ip), vehicle: saline with Tween-80): 97 % of control | T/C [21]: 104 % of control

CCc1cccc(OC/C=C(\C)CCC2OC2(C)CC)c1 (centres undefined)
T/C [2]: 100 % of control | T/C [3]: 100 % of control | T/C [21]: 94 % of control

CCCCCCCCOc1ccc(C=Nc2ccc(C(=O)OCC)cc2)cc1
T/C [13]: 87 % of control | T/C [14]: 92 % of control | T/C [15]: 94 % of control

COc1ccc(C(C)(C#N)Nc2ccccc2)cc1 (centres undefined)
T/C (dose: 100.0 mg/kg/injection, schedule: Q04DX003 (ip), vehicle: saline with Tween-80): 98 % of control | T/C (dose: 200.0 mg/kg/injection, schedule: Q04DX003 (ip), vehicle: saline with Tween-80): 96 % of control

O=[N+]([O-])c1ccc(O)c(Br)c1
T/C (dose: 6.25 mg/kg/injection, schedule: Q01DX009 (ip), vehicle: saline with Tween-80): 95 % of control | T/C [19]: 101 % of control | T/C (dose: 25.0 mg/kg/injection, schedule: Q01DX009 (ip), vehicle: carboxymethylcellulose (CMC)): 90 % of control | T/C [20]: 93 % of control

Cc1cc(=O)[nH]c2ccc(Cc3ccc(Cl)cc3)cc12
T/C [16]: 97 % of control | T/C [17]: 98 % of control | T/C [18]: 95 % of control

CN(C)C1c2cccn2-c2ccccc2S(=O)(=O)C1c1ccccc1[N+](=O)[O-] (centres undefined)
T/C [8]: 98 % of control | T/C [12]: 96 % of control

CCC1CCC(NC(=O)N(CCF)N=O)CC1 (centres undefined)
T/C (dose: 12.0 mg/kg/injection, schedule: Q01DX001 (ip), vehicle: other): 105 % of control | T/C (dose: 18.0 mg/kg/injection, schedule: Q01DX001 (ip), vehicle: other): 114 % of control | T/C (dose: 60.0 mg/kg/injection, schedule: Q01DX001 (ip), vehicle: other): 215 % of control | T/C (dose: 93.0 mg/kg/injection, schedule: Q01DX001 (ip), vehicle: other): 223 % of control

N=c1c(C(=O)O)cccn1O
T/C (dose: 87.5 mg/kg/injection, schedule: Q01DX009 (ip), vehicle: Klucel (hydroxypropylcellulose) (HPC)): 105 % of control | T/C (dose: 175.0 mg/kg/injection, schedule: Q01DX009 (ip), vehicle: Klucel (hydroxypropylcellulose) (HPC)): 94 % of control | T/C (dose: 350.0 mg/kg/injection, schedule: Q01DX009 (ip), vehicle: Klucel (hydroxypropylcellulose) (HPC)): 95 % of control
